Measured values taken from patent US10398155B2, “Animal feed comprising a combination of mono glycerides” (Proviron Holding N.V., priority 2013, dated 2019).

Tested on: Broiler chicken
Test: Broiler growth test over 42 days with additives in animal feed or drinking water (AEW, FCR)
Format: in vivo
Conditions: for D 0-42 AEW (average final weight of the broilers at day 42): Poor Feed day 0-13 then Rich Feed to day 42, average of 5 pens; for Ranking AEW 42 / Ranking FCR 42: compared to Rich feed standard test = 100%; for D 0-42 FCR (conversion of feed to chicken weight): lower is better
Protocol: Broiler chicken were grown during 42 days, with and without the abovementioned compositions being added to either the animal feed, or the drinking water.
By the end of the test period of 42 days, the final weight of the broiler was determined, this is the AEW (Average End Weight), as well as the degree of conversion of feed to chicken weight, this is the FCR (Feed Conversion Rate). The latter parameter indicates the amount of feed a broiler chicken should eat per kilogram of final weight of the animal. The lower this parameter, the more efficient the chicken has been fed. This parameter is influenced by the way the animal feed is digested by the intestinal tract or metabolism of the chicken, but also by the way the feed offered to the chicken is effectively accepted by the animal. The latter to a large extent is determined by the taste of the feed offered. To the extent the taste of the feed offered is positively acknowledged by the chicken, less feed is removed by the animal; so dependent on the taste of the feed, more or less of the feed is discarded by the chicken.
The tests were performed on groups of each time 20 broilers for each pen.
Each test was repeated on each time five pens, so each test was performed on in total 100 broilers.
Each value represents an average amount of the results obtained for each set of the five pens.
It is then added to the feed as a powdery compound. In practice it is much easier to mix such a powdery composition with the animal feed, as compared to the addition of a fluid to the feed. • The next two columns show the results of the test, expressed as final weight of the animal, in this case a broiler chicken. • The column with the heading D 0-42 AEW denotes the average final weight of the broilers at day 42 (Average End Weight). The higher the value for this parameter, the better. • The column with the title Ranking AEW 42 denotes, expressed as a percentage, the result of the test in terms of AEW, as compared to the standard test, corresponding to a standard value set at 100%. • The last two columns set forth the results of the test, expressed differently, namely as a measure for the conversion of the feed in meat-resp. increase of weight of the animal, as set forth above. • The column with the title D 0-42 FCR denotes the average value of the conversion of feed to weight of the animal. The lower the value for this parameter, the better. The lower the value, the more efficient the conversion of feed into animal meat has been performed. • The column with the heading Ranking FCR 42 denotes, expressed as a percentage, the result of the test with respect to FCR, as compared to the standard test, which has been allocated the value of 100%.
The feed that has been fed to the broilers in the various tests comprises two different embodiments: • a first type of feed is the so-called ‘Poor Feed’: this is a normal, customary feed that is being fed to the broilers, whereby no forced growth and feed conversion is to be expected, and whereby also no particular duty on the intestinal tract of the broilers is imposed. Differently phrased, the broilers have no difficulty in digesting this feed, and the younger broilers grow in a normal path to fully-grown adult animals. • a second type of feed is the so-called ‘Rich Feed’: this is a feed particularly high in energy and proteins, to which a component has been added that results in a more viscous intestine content. The result of the use of this type of feed is that the growth of the broilers is intensified, but it also results in a heavier load on the intestinal tract. So the intestines of the broilers should work harder to fully digest the feed absorbed by the animal. In this case the risk of disturbing the bacterial balance in the intestinal tract is substantially higher. Such an imbalance in bacteria (dysbacteriosis) may be a cause of diseases with resulting adverse effects. […]

[1] = TVN 5 mg/KgLW via drinking water, dosage 0.04 Kg/Ton
[2] = via drinking water, dosage 2.22 Kg/Ton

Compound: CCCCCCCCCCCC(=O)OCC(O)CO (centres unmarked) [Comp 1, monolaurin]
- D 0-42 AEW (average final weight of the broilers at day 42) (dosage 1.2 Kg/Ton of feed): 2.55 kg
- Ranking AEW 42 (dosage 1.2 Kg/Ton of feed): 97%
- Ranking FCR 42 (dosage 1.2 Kg/Ton of feed): 104.6%
- D 0-42 FCR (conversion of feed to chicken weight) (dosage 1.2 Kg/Ton of feed, day 0-42): 1.74
- D 0-42 AEW (average final weight of the broilers at day 42) (dosage 2.4 Kg/Ton of feed): 2.65 kg
- Ranking AEW 42 (dosage 2.4 Kg/Ton of feed): 101%
- Ranking FCR 42 (dosage 2.4 Kg/Ton of feed): 101.3%
- D 0-42 FCR (conversion of feed to chicken weight) (dosage 2.4 Kg/Ton of feed, day 0-42): 1.69

Compound: CC[C@H]1OC(=O)C[C@@H](OC(C)=O)[C@H](C)[C@@H](O[C@@H]2O[C@H](C)[C@@H](O[C@H]3C[C@@](C)(O)[C@@H](OC(=O)CC(C)C)[C@H](C)O3)[C@H](N(C)C)[C@H]2O)[C@@H](CC=O)C[C@@H](C)C(=O)/C=C/C(C)=C/[C@@H]1CO[C@@H]1O[C@H](C)[C@@H](O)[C@@H](OC)[C@H]1OC [Ref 3, Tylvalosin]
- average increase in weight per day of the broilers (Rich Feed with addition of TVN): 66.3 gr
- D 0-42 AEW (average final weight of the broilers at day 42) [1]: 2.79 kg
- Ranking AEW 42 [1]: 106%
- Ranking FCR 42 [1]: 96.6%
- Ranking AEW 42 (TVN 5 mg/KgLW via drinking water, dosage 0.04 Kg/Ton, listed as Tylvalosin): 105.53%
- D 0-42 FCR (conversion of feed to chicken weight) (TVN 5 mg/KgLW via drinking water, dosage 0.04 Kg/Ton, entire period day 0-42): 1.61

Compound: CCCC(=O)OCC(O)CO (centres unmarked) [Comp 4, monobutyrin]
- D 0-42 AEW (average final weight of the broilers at day 42) (dosage 2 Kg/Ton of feed): 2.68 kg
- Ranking AEW 42 (dosage 2 Kg/Ton of feed): 102%
- Ranking FCR 42 (dosage 2 Kg/Ton of feed): 97.9%
- D 0-42 FCR (conversion of feed to chicken weight) (dosage 2 Kg/Ton of feed, day 0-42): 1.63
- D 0-42 AEW (average final weight of the broilers at day 42) (dosage 4 Kg/Ton of feed): 2.63 kg
- Ranking AEW 42 (dosage 4 Kg/Ton of feed): 100%
- Ranking FCR 42 (dosage 4 Kg/Ton of feed): 101.9%
- D 0-42 FCR (conversion of feed to chicken weight) (dosage 4 Kg/Ton of feed, day 0-42): 1.70
- D 0-42 AEW (average final weight of the broilers at day 42) [2]: 2.65 kg
- Ranking AEW 42 [2]: 101%
- Ranking FCR 42 [2]: 98.6%
- D 0-42 FCR (conversion of feed to chicken weight) (via drinking water, dosage 2.22 Kg/Ton, day 0-42): 1.64
